Biological target: T1, human TRPV1 (Homo sapiens, UniProt Q8NER1)
T1 construct: expressed in transfected cells; host or cells: CHO-K1
Experiment: Measurement of capsaicin-induced Ca influx in human TRPV1 transformed CHO cell line using FDSS-6000
Format: cell-based
Conditions: concentration at which the capsaicin concentration-reaction curve is shifted two times to the right, human TRPV1 transformed CHO cells
Source text: [Measurement of Capsaicin-Induced Ca Influx in Human TRPV1 Transformed CHO Cell Line]
(1) Establishment of Human TRPV1 Transformed CHO Cell Line
Human vanilloid receptor 1 (hTRPV1) cDNA was cloned from a human brain. The cloned hTRPV1 cDNA was incorporated in a pCAGGS vector. The gene of the vector was introduced to a CHO-K1 cell line, thus performing transformation. Clones obtained by limiting dilution were stimulated with capsaicin. Clones with a high responsiveness were selected using an increase in the Ca concentration as an indicator. The selected clones were used for the following experiment.
(2) Measurement of Ca Influx Using FDSS-6000
The human TRPV1 transformed CHO cells were seeded in a 96-well plate (with black walls and transparent bottoms, manufactured by Greiner) at a density of 40,000 cells per well. The cells were cultured at 37° C. in 5% CO2 for one night. A loading solution of FLIPR Calcium 3 assay kit (manufactured by Molecular Devices Corporation) containing 2.5 mmol/L of probenecid was then added to each of the wells in the same amount as the culture medium, and the cells were cultured at 37° C. for 60 minutes. After the cells were stimulated with capsaicin (1 nmol/L to 1 μmol/L), the change in the Ca concentration in the cells was measured using FDSS-6000 (λex: 480 nm, λem: 540 nm, manufactured by Hamamatsu Photonics K.K.) for three minutes. The integrated values of the increase rate of the Ca concentration in the cells were calculated for a group treated with the compounds of the present invention and a group treated with a medium, thus allowing capsaicin concentration-reaction curves to be obtained. A concentration (A2 value) of each of the compounds of the present invention, at which the capsaicin concentration-reaction curve obtained when the cells were treated with the medium was shifted two times to the right side, was calculated. The inhibiting effects of the test compounds were compared using this value as an indicator.
In the case where a compound of the present invention is an agonist, when the cells are treated with the compound of the present invention prior to the capsaicin stimulation, the Ca influx is observed. In Table 1, compounds of the present invention having an A2 value of less than 100 nM are represented by A, and compounds having an A2 value of 100 nM or more are represented by B. When the A2 values of the compounds of the present invention were measured by the above-described method, the compounds have an intensity of 1 μM or less.

T1 sequence (Q8NER1 whole entry): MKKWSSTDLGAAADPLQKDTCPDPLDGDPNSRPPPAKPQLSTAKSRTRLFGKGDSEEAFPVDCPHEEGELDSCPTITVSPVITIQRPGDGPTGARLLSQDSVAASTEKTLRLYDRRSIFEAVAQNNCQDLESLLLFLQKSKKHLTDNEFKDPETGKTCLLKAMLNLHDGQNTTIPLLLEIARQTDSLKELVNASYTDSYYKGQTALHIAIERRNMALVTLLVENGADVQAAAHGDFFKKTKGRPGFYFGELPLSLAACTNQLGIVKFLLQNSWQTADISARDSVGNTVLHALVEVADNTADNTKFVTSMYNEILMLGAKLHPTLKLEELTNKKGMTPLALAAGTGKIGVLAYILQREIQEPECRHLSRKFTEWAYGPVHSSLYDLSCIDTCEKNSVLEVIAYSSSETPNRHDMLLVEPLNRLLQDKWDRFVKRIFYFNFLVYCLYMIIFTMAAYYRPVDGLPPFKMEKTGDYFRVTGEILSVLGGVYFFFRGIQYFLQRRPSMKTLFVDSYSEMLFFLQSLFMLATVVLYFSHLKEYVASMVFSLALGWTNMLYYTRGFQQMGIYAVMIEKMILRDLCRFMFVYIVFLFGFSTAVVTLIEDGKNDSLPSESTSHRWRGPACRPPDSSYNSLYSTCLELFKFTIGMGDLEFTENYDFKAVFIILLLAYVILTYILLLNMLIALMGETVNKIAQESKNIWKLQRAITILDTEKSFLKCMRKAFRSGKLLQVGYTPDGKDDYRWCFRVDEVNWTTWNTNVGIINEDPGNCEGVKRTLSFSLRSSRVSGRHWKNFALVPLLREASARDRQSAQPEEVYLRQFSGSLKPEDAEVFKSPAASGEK

SMILES	A2 VALUE
CCn1c(NC(=O)/C=C2\CCCOc3cc(C(F)(F)F)ccc32)nc2ccccc21 [Example 43, (E)-N-(1-ethyl-1H-benzo[d]imidazolo-2-yl)-2-(8-trifluoromethyl-3,4-dihydrobenzo[b]oxepin-5(2H)-ylidene)acetamide]	B (compounds having an A2 value of 100 nM or more are represented by B)
O=C(/C=C1\CCCOc2cc(C(F)(F)F)ccc21)Nc1ccnc2ncnn12 [Example 44, (E)-N-([1,2,4]triazolo[1,5-a]pyrimidin-7-yl)-2-(8-trifluoromethyl-3,4-dihydrobenzo[b]oxepin-5(2H)-ylidene)acetamide]	B (compounds having an A2 value of 100 nM or more are represented by B)
O=C(/C=C1\CCCOc2cc(C(F)(F)F)ccc21)NC1CCCc2cccnc2C1 (centres unmarked) [Example 45, (E)-2-(8-trifluoromethyl-3,4-dihydrobenzo[b]oxepin-5(2H)-ylidene)-N-(6,7,8,9-tetrahydro-5H-cyclohepta[b]pyridin-8-yl)acetamide]	B (compounds having an A2 value of 100 nM or more are represented by B)
Cc1cc(NC(=O)/C=C2\CCCOc3cc(C(F)(F)F)ccc32)n(C(C)(C)C)n1 [Example 46, (E)-N-(1-tert-butyl-3-methyl-1H-pyrazolo-5-yl)-2-(8-trifluoromethyl-3,4-dihydrobenzo[b]oxepin-5(2H)-ylidene)acetamide]	B (compounds having an A2 value of 100 nM or more are represented by B)
O=C(/C=C1\CCCOc2cc(C(F)(F)F)ccc21)Nc1nc(-c2ccccc2)cs1 [Example 47, (E)-2-(8-trifluoromethyl-3,4-dihydrobenzo[b]oxepin-5(2H)-ylidene)-N-(4-phenylthiazolo-2-yl)acetamide]	B (compounds having an A2 value of 100 nM or more are represented by B)
CC(=O)N1CC/C(=C\C(=O)Nc2ccc3cccnc3c2)c2ccc(C(F)(F)F)cc21 [Example 48, (E)-2-(1-acetyl-7-trifluoromethyl-2,3-dihydroquinolin-4(1H)-ylidene)-N-(quinolin-7-yl)acetamide]	A (compounds of the present invention having an A2 value of less than 100 nM are represented by A)
O=C(/C=C1\CCNc2cc(C(F)(F)F)ccc21)NC1CCc2cccnc2C1 (centres unmarked) [Example 49, (E)-2-(7-trifluoromethyl-2,3-dihydroquinolin-4(1H)-ylidene)-N-(5,6,7,8-tetrahydroquinolin-7-yl)acetamide]	B (compounds having an A2 value of 100 nM or more are represented by B)
CCCCC(=O)N1CC/C(=C\C(=O)Nc2ccc3cccnc3c2)c2ccc(C(F)(F)F)cc21 [Example 50, (E)-2-(7-trifluoromethyl-2,3-dihydro-1-pentanoylquinolin-4(1H)-ylidene)-N-(quinolin-7-yl)acetamide]	A (compounds of the present invention having an A2 value of less than 100 nM are represented by A)
CCC(CC)C(=O)N1CC/C(=C\C(=O)Nc2ccc3cccnc3c2)c2ccc(C(F)(F)F)cc21 [Example 51, (E)-2-(1-(2-ethylbutanoyl)-7-trifluoromethyl-2,3-dihydroquinolin-4(1H)-ylidene)-N-(quinolin-7-yl)acetamide]	A (compounds of the present invention having an A2 value of less than 100 nM are represented by A)
O=C(/C=C1\CCN(C(=O)C2CCCCC2)c2cc(C(F)(F)F)ccc21)Nc1ccc2cccnc2c1 [Example 52, (E)-2-(7-trifluoromethyl-2,3-dihydro-1-cyclohexanecarbonylquinolin-4(1H)-ylidene)-N-(quinolin-7-yl)acetamide]	A (compounds of the present invention having an A2 value of less than 100 nM are represented by A)
O=C(/C=C1\CCN(C(=O)C2CCOCC2)c2cc(C(F)(F)F)ccc21)Nc1ccc2cccnc2c1 [Example 53, (E)-2-(7-trifluoromethyl-2,3-dihydro-1-(4-pyranoyl)quinolin-4(1H)-ylidene)-N-(quinolin-7-yl)acetamide]	A (compounds of the present invention having an A2 value of less than 100 nM are represented by A)
O=C(/C=C1\CCN(C(=O)c2ccccc2)c2cc(C(F)(F)F)ccc21)Nc1ccc2cccnc2c1 [Example 54, (E)-2-(7-trifluoromethyl-2,3-dihydro-1-benzoylquinolin-4(1H)-ylidene)-N-(quinolin-7-yl)acetamide]	A (compounds of the present invention having an A2 value of less than 100 nM are represented by A)
O=C(/C=C1\CCN(C(=O)c2cccnc2)c2cc(C(F)(F)F)ccc21)Nc1ccc2cccnc2c1 [Example 55, (E)-2-(7-trifluoromethyl-2,3-dihydro-1-nicotinoylquinolin-4(1H)-ylidene)-N-(quinolin-7-yl)acetamide]	A (compounds of the present invention having an A2 value of less than 100 nM are represented by A)
O=C(/C=C1\CCN(c2ccc(Cl)cc2)c2cc(C(F)(F)F)ccc21)NC1CCc2cccnc2C1 (centres unmarked) [Example 56, (E)-2-(1-(4-chlorophenyl)-7-trifluoromethyl-2,3-dihydro-4(1H)-ylidene)-N-(5,6,7,8-tetrahydroquinolin-7-yl)acetamide]	A (compounds of the present invention having an A2 value of less than 100 nM are represented by A)
O=C(/C=C1\CCN(c2ccc(Cl)cc2)c2cc(C(F)(F)F)ccc21)Nc1ccc2cccnc2c1 [Example 57, (E)-2-(1-(4-chlorophenyl)-7-trifluoromethyl-2,3-dihydro-4(1H)-ylidene)-N-(quinolin-7-yl)acetamide]	A (compounds of the present invention having an A2 value of less than 100 nM are represented by A)
O=C(/C=C1\CCN(c2cccnc2)c2cc(C(F)(F)F)ccc21)Nc1ccc2cccnc2c1 [Example 58, (E)-2-(7-trifluoromethyl-2,3-dihydro-1-(pyridin-3-yl)quinolin-4(1H)-ylidene)-N-(quinolin-7-yl)acetamide]	A (compounds of the present invention having an A2 value of less than 100 nM are represented by A)
O=C(/C=C1\CCCOc2cc(C(F)(F)F)ccc21)Nc1ccc2sc(CO)nc2c1 [Example 59, (E)-2-(8-trifluoromethyl-3,4-dihydrobenzo[b]oxepin-5(2H)-ylidene)-N-(2-hydroxymethyl-1,3-benzothiazolo-5-yl)acetamide]	A (compounds of the present invention having an A2 value of less than 100 nM are represented by A)
O=C(/C=C1\CCCOc2cc(C(F)(F)F)ccc21)Nc1ccccc1CCO [Example 60, (E)-2-(8-trifluoromethyl-3,4-dihydrobenzo[b]oxepin-5(2H)-ylidene)-N-((2-hydroxyethyl)phenyl-1-yl)acetamide]	A (compounds of the present invention having an A2 value of less than 100 nM are represented by A)
O=C1CCc2cccc(NC(=O)/C=C3\CCCOc4cc(C(F)(F)F)ccc43)c2C1 [Example 61, (E)-2-(8-trifluoromethyl-3,4-dihydrobenzo[b]oxepin-5(2H)-ylidene)-N-(7-oxo-5,6,7,8-tetrahydronaphthalen-1-yl)acetamide]	A (compounds of the present invention having an A2 value of less than 100 nM are represented by A)
O=C(/C=C1\CCCOc2cc(C(F)(F)F)ccc21)Nc1cccc2c1CC(O)CC2 (centres unmarked) [Example 62, (E)-2-(8-trifluoromethyl-3,4-dihydrobenzo[b]oxepin-5-(2H)-ylidene)-N-(7-hydroxy-5,6,7,8-tetrahydronaphthalen-1-yl)acetamide]	A (compounds of the present invention having an A2 value of less than 100 nM are represented by A)
O=C(/C=C1\CCCOc2cc(C(F)(F)F)ccc21)Nc1cccc2c1CC(O)CC2 (centres unmarked) [Example 63, (E)-2-(8-trifluoromethyl-3,4-dihydrobenzo[b]oxepin-5-(2H)-ylidene)-N-(7-hydroxy-5,6,7,8-tetrahydronaphthalen-1-yl)acetamide]	A (compounds of the present invention having an A2 value of less than 100 nM are represented by A)
O=C(/C=C1\CCCOc2cc(C(F)(F)F)ccc21)Nc1cccc2c1CC(O)CC2 (centres unmarked) [Example 64, (E)-2-(8-trifluoromethyl-3,4-dihydrobenzo[b]oxepin-5-(2H)-ylidene)-N-(7-hydroxy-5,6,7,8-tetrahydronaphthalen-1-yl)acetamide]	A (compounds of the present invention having an A2 value of less than 100 nM are represented by A)
O=C(/C=C1\CCCOc2cc(C(F)(F)F)ccc21)Nc1cccc2c1CC(O)C(O)C2 (stereo not drawn) [Example 65, (E)-2-(8-trifluoromethyl-3,4-dihydrobenzo[b]oxepin-5-(2H)-ylidene)-N-(trans-6,7-dihydroxy-5,6,7,8-tetrahydronaphthalen-1-yl)acetamide]	A (compounds of the present invention having an A2 value of less than 100 nM are represented by A)

Reference: US7910751B2, “Heterocyclidene acetamide derivative” (Mochida Pharmaceutical Co., Ltd., priority 2005, dated 2011)
